ChEMBL document CHEMBL3351763, “Design and synthesis of novel small molecule CCR2 antagonists: evaluation of 4-aminopiperidine derivatives” (Bioorg Med Chem Lett, 2014)

What was measured:
[1] = biological target: T1, C-C chemokine receptor type 2 (Homo sapiens, UniProt P41597); assay: Displacement of [125I]CCL2 from CCR2 in human U2OS cell membranes at 1 uM by radioligand displacement assay
Target sequence in this assay (P41597 whole entry, looked up): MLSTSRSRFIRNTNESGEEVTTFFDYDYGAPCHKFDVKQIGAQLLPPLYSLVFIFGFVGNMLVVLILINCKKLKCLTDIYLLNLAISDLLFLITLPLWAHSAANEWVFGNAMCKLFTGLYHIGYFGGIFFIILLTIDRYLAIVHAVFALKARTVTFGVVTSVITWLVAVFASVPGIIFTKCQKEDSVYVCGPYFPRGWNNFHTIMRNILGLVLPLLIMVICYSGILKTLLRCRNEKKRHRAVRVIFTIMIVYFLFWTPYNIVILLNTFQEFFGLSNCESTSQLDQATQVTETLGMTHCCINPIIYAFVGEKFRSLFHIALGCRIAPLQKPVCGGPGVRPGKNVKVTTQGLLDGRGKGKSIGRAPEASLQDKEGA

[2] = biological target: T1, C-C chemokine receptor type 2; assay: Displacement of [125I]CCL2 from CCR2 in human U2OS cell membranes by radioligand displacement assay
Target sequence in this assay (P41597 whole entry): as the sequence (P41597 whole entry, looked up) above

Row | Compound | inhibition [1] | Ki [2]
1 | O=C(CNC(=O)c1cccc(C(F)(F)F)c1)NC1CCN(Cc2cn(-c3ccccc3)nn2)CC1 | 12% | –
2 | O=C(CNC(=O)c1cccc(C(F)(F)F)c1)NC1CCN(C2CCCC(c3ccccc3)C2)CC1 (stereo not given) | 10% | –
3 | O=C(CNC(=O)c1cccc(C(F)(F)F)c1)NC1CCN(C2CCc3ccccc3C2)CC1 (stereo not given) | 24% | –
4 | O=C(CNC(=O)c1cccc(C(F)(F)F)c1)NC1CCN(C2CCC(c3ccc4c(c3)OCO4)CC2)CC1 (stereo not given) | – | 90 nM
5 | Cc1ccccc1C1CCC(N2CCC(NC(=O)CNC(=O)c3cccc(C(F)(F)F)c3)CC2)CC1 (stereo not given) | 26% | –
6 | COc1cccc(C2CCC(N3CCC(NC(=O)CNC(=O)c4cccc(C(F)(F)F)c4)CC3)CC2)c1 (stereo not given) | – | 66 nM
7 | Cc1cccc(C2CCC(N3CCC(NC(=O)CNC(=O)c4cccc(C(F)(F)F)c4)CC3)CC2)c1 (stereo not given) | – | 270 nM

Now from value to molecule:

Row | inhibition [1] | Ki [2] | Compound
8 | 6% | – | O=C(CNC(=O)c1cccc(C(F)(F)F)c1)NC1CCN(CCCc2ccccc2)CC1
9 | 38% | – | Cc1ccc(C2CCC(N3CCC(NC(=O)CNC(=O)c4cccc(C(F)(F)F)c4)CC3)CC2)cc1 (stereo not given)
10 | – | 139 nM | O=C(CNC(=O)c1cccc(C(F)(F)F)c1)NC1CCN(C2CCC(c3ccc(O)cc3)CC2)CC1 (stereo not given)
11 | 42% | – | COc1cccc(OC)c1C1CCC(N2CCC(NC(=O)CNC(=O)c3cccc(C(F)(F)F)c3)CC2)CC1 (stereo not given)
12 | 31% | – | O=C(NCC(=O)N1CCC(NC2CCC(c3ccccc3)CC2)CC1)c1cccc(C(F)(F)F)c1 (stereo not given)
13 | 41% | – | COc1cc(OC)cc(C2CCC(N3CCC(NC(=O)CNC(=O)c4cccc(C(F)(F)F)c4)CC3)CC2)c1 (stereo not given)
14 | 0% | – | O=C(CNC(=O)c1cccc(C(F)(F)F)c1)NC1CCN(Cc2ccc(Cl)cc2)CC1
15 | – | 74 nM | O=C(CNC(=O)c1cccc(C(F)(F)F)c1)NC1CCN(C2CCC(c3ccccc3)CC2)CC1 (stereo not given)
